As usually defined, the EC50 is the concentration needed to bring the measured effect to its halfway point.

The target of one experiment is T1, human GIP R (Homo sapiens, UniProt P48546).
T1 construct: expressed in transfected cells
T1 sequence (P48546 22-466): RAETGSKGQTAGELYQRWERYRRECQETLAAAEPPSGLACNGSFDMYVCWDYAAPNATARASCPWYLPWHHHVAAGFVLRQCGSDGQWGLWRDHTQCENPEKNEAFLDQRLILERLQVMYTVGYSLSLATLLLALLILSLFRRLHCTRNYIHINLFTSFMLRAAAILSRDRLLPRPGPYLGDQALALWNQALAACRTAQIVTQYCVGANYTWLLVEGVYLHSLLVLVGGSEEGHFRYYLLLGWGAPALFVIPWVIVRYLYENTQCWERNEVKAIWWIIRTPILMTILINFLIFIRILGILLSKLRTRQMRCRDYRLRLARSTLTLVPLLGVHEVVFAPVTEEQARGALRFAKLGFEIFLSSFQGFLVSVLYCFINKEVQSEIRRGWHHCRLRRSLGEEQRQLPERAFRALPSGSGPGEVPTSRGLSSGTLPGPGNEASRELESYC
Put plainly: Human GIP receptor (GIP R) activity assay, cAMP induction (AlphaScreen) in HEK293 cells. Type of experiment: cell-based. As to conditions: read-out: hGIP-R cAMP EC50 average value. Put shortly: (§1)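 Stable HEK293 clones expressing human GIP R or GLP-1 R, seeded 1 day before; cells washed in Tyrode's buffer (10 mM HEPES, pH 7.4), stimulated, then lysed. cAMP measured by AlphaScreen bead competition (1 h, room temperature, dark). EC50 = concentration giving half-maximal cAMP elevation, from curves of absolute cAMP (nM) vs log concentration.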
Background: Alpha assays give light when donor and acceptor beads are brought close together.

For the next experiment, the target named is T2, human GLP-1 R (Homo sapiens, UniProt P43220).
T2 construct: expressed in transfected cells
T2 sequence (P43220 24-463): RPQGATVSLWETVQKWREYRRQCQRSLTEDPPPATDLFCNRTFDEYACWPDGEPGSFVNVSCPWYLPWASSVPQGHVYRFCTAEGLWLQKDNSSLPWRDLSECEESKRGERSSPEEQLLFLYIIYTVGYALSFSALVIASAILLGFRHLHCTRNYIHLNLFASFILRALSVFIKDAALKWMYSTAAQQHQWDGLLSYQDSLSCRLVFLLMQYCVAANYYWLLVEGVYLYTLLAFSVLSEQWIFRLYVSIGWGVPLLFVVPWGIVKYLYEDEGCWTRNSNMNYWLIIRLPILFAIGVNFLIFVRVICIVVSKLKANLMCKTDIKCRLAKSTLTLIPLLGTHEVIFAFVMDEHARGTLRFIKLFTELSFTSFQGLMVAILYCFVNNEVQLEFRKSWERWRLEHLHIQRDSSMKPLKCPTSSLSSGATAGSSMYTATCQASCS
Nature of the experiment: Human GLP-1 receptor (GLP-1 R) activity assay, cAMP induction (AlphaScreen) in HEK293 cells. Format: cell-based. Put shortly:
as §1

Setting [1] is: Table 2, HEK293 cells expressing human GIP R.
[2] abbreviates: Table 3, most comprehensive data.
The mark [3] stands for this setting: Table 2, HEK293 cells expressing human GLP-1 R, read-out: hGLP1-R cAMP EC50 average value.
The mark [4] stands for this setting: Table 3, most comprehensive data, read-out: hGLP-1-R cAMP EC50 average value.

Where two headings read alike, the source gives them in different places. *1 amine or outer side, *2 acyl side, *3 side chain or, on linkers, in order; H or OH if unused. Where a SMILES comes first, the peptide text is derived from it. Side-chain parts run from the residue outwards. [ ]: non-standard residue; d: D form. The star is where a group is joined. C20 diacid = O=C(O)CCCCCCCCCCCCCCCCCCC(=O)*; γGlu = O=C(O)[C@H](CCC(=O)[*:2])N[*:1]; AEEA = NCCOCCOCC(=O)O; Aib = CC(C)(N)C(=O)O

Turning to `CC[C@H](C)[C@H](NC(=O)[C@H](CO)NC(=O)[C@H](Cc1ccc(O)cc1)NC(=O)[C@H](CC(=O)O)NC(=O)[C@H](CO)NC(=O)[C@@H](NC(=O)[C@H](Cc1ccccc1)NC(=O)[C@@H](NC(=O)CNC(=O)[C@H](CCC(=O)O)NC(=O)C(C)(C)NC(=O)[C@@H](N)Cc1ccc(O)cc1)[C@@H](C)O)[C@@H](C)O)C(=O)N[C@@H](C)C(=O)N[C@@H](CC(C)C)C(=O)N[C@@H](CCC(=O)O)C(=O)N[C@@H](CCCCN)C(=O)N[C@@H](CCCCNC(=O)COCCOCCNC(=O)COCCOCCNC(=O)CC[C@H](NC(=O)CCCCCCCCCCCCCCCCCCC(=O)O)C(=O)O)C(=O)N[C@@H](C)C(=O)N[C@@H](CCC(N)=O)C(=O)N[C@@H](CCCNC(=N)N)C(=O)N[C@@H](C)C(=O)N[C@@H](Cc1ccccc1)C(=O)N[C@H](C(=O)N[C@@H](CCC(=O)O)C(=O)N[C@@H](Cc1c[nH]c2ccccc12)C(=O)N[C@@H](CC(C)C)C(=O)N[C@@H](CC(C)C)C(=O)N[C@@H](C)C(=O)N[C@@H](CCC(N)=O)C(=O)N[C@@H](CCCCN)C(N)=O)C(C)C` [Compound 25] (H-Y[Aib]EGTFTSDYSIALEKK([AEEA-AEEA-γGlu-C20 diacid])AQRAFVEWLLAQK-NH2), the figures for the EC50 at human GIP R (setting [1]), at human GIP R (setting [2]) and at human GLP-1 R (setting [3]) were 0.009 nM, 0.009 nM and 0.011 nM, respectively.

For `CC[C@H](C)[C@H](NC(=O)[C@H](CO)NC(=O)[C@H](CC(C)C)NC(=O)[C@H](CC(=O)O)NC(=O)[C@H](CO)NC(=O)[C@@H](NC(=O)[C@H](Cc1ccccc1)NC(=O)[C@@H](NC(=O)CNC(=O)[C@H](CCC(=O)O)NC(=O)C(C)(C)NC(=O)[C@@H](N)Cc1ccc(O)cc1)[C@@H](C)O)[C@@H](C)O)C(=O)N[C@@H](C)C(=O)N[C@@H](CC(C)C)C(=O)N[C@@H](CCC(=O)O)C(=O)N[C@@H](CCCCN)C(=O)N[C@@H](CCCCNC(=O)COCCOCCNC(=O)COCCOCCNC(=O)CC[C@H](NC(=O)CCCCCCCCCCCCCCCCCCC(=O)O)C(=O)O)C(=O)N[C@@H](C)C(=O)N[C@@H](CCC(N)=O)C(=O)N[C@@H](CCCNC(=N)N)C(=O)N[C@@H](C)C(=O)N[C@@H](Cc1ccccc1)C(=O)N[C@H](C(=O)N[C@@H](CCC(=O)O)C(=O)N[C@@H](Cc1c[nH]c2ccccc12)C(=O)N[C@@H](CC(C)C)C(=O)N[C@@H](CCC(=O)O)C(=O)N[C@@H](C)C(=O)N[C@@H](CCC(N)=O)C(=O)N[C@@H](CCCCN)C(N)=O)C(C)C` [Compound 26] (H-Y[Aib]EGTFTSDLSIALEKK([AEEA-AEEA-γGlu-C20 diacid])AQRAFVEWLEAQK-NH2), the figures for the EC50 at human GIP R (setting [2]) and on human GLP-1 R (setting [3]) were 0.58 nM and 0.014 nM, respectively.

Take `CC[C@H](C)[C@H](NC(=O)[C@H](CO)NC(=O)[C@H](Cc1ccc(O)cc1)NC(=O)[C@H](CC(=O)O)NC(=O)[C@H](CO)NC(=O)[C@@H](NC(=O)[C@H](Cc1ccccc1)NC(=O)[C@@H](NC(=O)CNC(=O)[C@H](CCC(=O)O)NC(=O)C(C)(C)NC(=O)[C@@H](N)Cc1ccc(O)cc1)[C@@H](C)O)[C@@H](C)O)C(=O)N[C@@H](Cc1ccc(O)cc1)C(=O)N[C@@H](CC(C)C)C(=O)N[C@@H](CCC(=O)O)C(=O)N[C@@H](CCCCN)C(=O)N[C@@H](CCCCNC(=O)COCCOCCNC(=O)COCCOCCNC(=O)CC[C@H](NC(=O)CCCCCCCCCCCCCCCCCCC(=O)O)C(=O)O)C(=O)N[C@@H](C)C(=O)N[C@@H](CCC(N)=O)C(=O)N[C@@H](CCCNC(=N)N)C(=O)N[C@@H](C)C(=O)N[C@@H](Cc1ccccc1)C(=O)N[C@H](C(=O)N[C@@H](CCC(=O)O)C(=O)N[C@@H](Cc1c[nH]c2ccccc12)C(=O)N[C@@H](CC(C)C)C(=O)N[C@@H](CC(C)C)C(=O)N[C@@H](CCCNC(=N)N)C(=O)N[C@@H](C)C(N)=O)C(C)C` [Compound 29] (H-Y[Aib]EGTFTSDYSIYLEKK([AEEA-AEEA-γGlu-C20 diacid])AQRAFVEWLLRA-NH2): the EC50 on human GIP R (setting [1]) worked out at 0.025 nM; at human GLP-1 R (setting [3]), 0.033 nM.

Take `CC[C@H](C)[C@H](NC(=O)[C@H](CO)NC(=O)[C@H](CC(C)C)NC(=O)[C@H](CC(=O)O)NC(=O)[C@H](CO)NC(=O)[C@@H](NC(=O)[C@H](Cc1ccccc1)NC(=O)[C@@H](NC(=O)CNC(=O)[C@H](CCC(=O)O)NC(=O)C(C)(C)NC(=O)[C@@H](N)Cc1ccc(O)cc1)[C@@H](C)O)[C@@H](C)O)C(=O)N[C@@H](C)C(=O)N[C@@H](CC(C)C)C(=O)N[C@@H](CCC(=O)O)C(=O)N[C@@H](CCCCN)C(=O)N[C@@H](CCCCNC(=O)COCCOCCNC(=O)COCCOCCNC(=O)CC[C@H](NC(=O)CCCCCCCCCCCCCCCCCCC(=O)O)C(=O)O)C(=O)N[C@@H](C)C(=O)N[C@@H](CCC(N)=O)C(=O)N[C@@H](CCCNC(=N)N)C(=O)N[C@@H](C)C(=O)N[C@@H](Cc1ccccc1)C(=O)N[C@H](C(=O)N[C@@H](CCC(=O)O)C(=O)N[C@@H](Cc1c[nH]c2ccccc12)C(=O)N[C@@H](CC(C)C)C(=O)N[C@@H](CC(C)C)C(=O)N[C@@H](C)C(=O)N[C@@H](CCC(N)=O)C(=O)NCC(=O)N1CCC[C@H]1C(=O)N[C@@H](CO)C(=O)N[C@@H](CO)C(=O)NCC(=O)N[C@@H](C)C(=O)N1CCC[C@H]1C(=O)N1CCC[C@H]1C(=O)N1CCC[C@H]1C(=O)N[C@@H](CO)C(N)=O)C(C)C` [Compound 33] (H-Y[Aib]EGTFTSDLSIALEKK([AEEA-AEEA-γGlu-C20 diacid])AQRAFVEWLLAQGPSSGAPPPS-NH2): the results for the EC50 at human GIP R (setting [1]), on human GIP R (setting [2]) and at human GLP-1 R (setting [3]) were 0.009 nM, 0.009 nM and 0.014 nM, respectively.

As for `CC[C@H](C)[C@H](NC(=O)[C@H](CO)NC(=O)[C@H](Cc1ccc(O)cc1)NC(=O)[C@H](CC(=O)O)NC(=O)[C@H](CO)NC(=O)[C@@H](NC(=O)[C@H](Cc1ccccc1)NC(=O)[C@@H](NC(=O)CNC(=O)[C@H](CCC(=O)O)NC(=O)C(C)(C)NC(=O)[C@@H](N)Cc1ccc(O)cc1)[C@@H](C)O)[C@@H](C)O)C(=O)N[C@@H](Cc1ccc(O)cc1)C(=O)N[C@@H](CC(C)C)C(=O)N[C@@H](CC(=O)O)C(=O)N[C@@H](CCCCN)C(=O)N[C@@H](CCCCNC(=O)COCCOCCNC(=O)COCCOCCNC(=O)CCCCCCCCCCCCCCCCCCC(=O)O)C(=O)N[C@@H](C)C(=O)N[C@@H](CCC(N)=O)C(=O)N[C@@H](CCCNC(=N)N)C(=O)N[C@@H](C)C(=O)N[C@@H](Cc1ccccc1)C(=O)N[C@H](C(=O)N[C@@H](CCC(=O)O)C(=O)N[C@@H](Cc1c[nH]c2ccccc12)C(=O)N[C@@H](CC(C)C)C(=O)N[C@@H](CC(C)C)C(=O)N[C@@H](C)C(=O)N[C@@H](CCC(N)=O)C(=O)NCC(=O)N1CCC[C@H]1C(=O)N[C@@H](CO)C(=O)N[C@@H](CO)C(=O)NCC(=O)N[C@@H](C)C(=O)N1CCC[C@H]1C(=O)N1CCC[C@H]1C(=O)N1CCC[C@H]1C(=O)N[C@@H](CO)C(N)=O)C(C)C` [Compound 35] (H-Y[Aib]EGTFTSDYSIYLDKK([AEEA-AEEA-C20 diacid])AQRAFVEWLLAQGPSSGAPPPS-NH2), the EC50 on human GIP R (setting [2]) came out at 0.016 nM; at human GLP-1 R (setting [4]) it was 0.012 nM.

For `CC[C@H](C)[C@H](NC(=O)[C@H](CO)NC(=O)[C@H](Cc1ccc(O)cc1)NC(=O)[C@H](CC(=O)O)NC(=O)[C@H](CO)NC(=O)[C@@H](NC(=O)[C@H](Cc1ccccc1)NC(=O)[C@@H](NC(=O)CNC(=O)[C@H](CCC(=O)O)NC(=O)C(C)(C)NC(=O)[C@@H](N)Cc1ccc(O)cc1)[C@@H](C)O)[C@@H](C)O)C(=O)N[C@@H](Cc1ccc(O)cc1)C(=O)N[C@@H](CC(C)C)C(=O)N[C@@H](CC(=O)O)C(=O)N[C@@H](CCCCN)C(=O)N[C@@H](CCCCNC(=O)CC[C@H](NC(=O)CCCCCCCCCCCCCCCCCCC(=O)O)C(=O)O)C(=O)N[C@@H](C)C(=O)N[C@@H](CCC(N)=O)C(=O)N[C@@H](CCCNC(=N)N)C(=O)N[C@@H](C)C(=O)N[C@@H](Cc1ccccc1)C(=O)N[C@H](C(=O)N[C@@H](CCC(=O)O)C(=O)N[C@@H](Cc1c[nH]c2ccccc12)C(=O)N[C@@H](CC(C)C)C(=O)N[C@@H](CC(C)C)C(=O)N[C@@H](C)C(=O)N[C@@H](CCC(N)=O)C(=O)NCC(=O)N1CCC[C@H]1C(=O)N[C@@H](CO)C(=O)N[C@@H](CO)C(=O)NCC(=O)N[C@@H](C)C(=O)N1CCC[C@H]1C(=O)N1CCC[C@H]1C(=O)N1CCC[C@H]1C(=O)N[C@@H](CO)C(N)=O)C(C)C` [Compound 36] (H-Y[Aib]EGTFTSDYSIYLDKK([γGlu-C20 diacid])AQRAFVEWLLAQGPSSGAPPPS-NH2), the EC50 turned out to be 0.01 nM on human GIP R (setting [2]) and 0.015 nM at human GLP-1 R (setting [4]).

The record behind these values is patent US10093713B2, “GIP-GLP-1 dual agonist compounds and methods” (priority 2013, dated 2018).
